Measured values reported in US8802597B2, “Herbicidal pyrimidines” (E I du Pont de Nemours and Company, priority 2003, dated 2014).
Read-outs that look alike come from different tables or passages of the source.

Columns and labels:
Type in all cases: in vivo
[1] = tested on: Surinam grass (Brachiaria decumbens); experiment: Test B pre/postemergence; conditions: Urochloa decumbens; for pest or weed control at 125 g/ha: 125 g ai/ha; for pest or weed control at 500 g/ha: 500 g ai/ha
Outline: (§1)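 Formulation: non-phytotoxic solvent blend with surfactant. Timing: preemergence on seeds, postemergence at 1- to 4-leaf (2–18 cm). Assessment: visual, 0–100 against controls, after 13–15 days' greenhouse growth.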

[2] = tested on: barnyardgrass (Echinochloa crus-galli); experiment: Test B pre/postemergence; conditions: Echinochloa crus-galli; for pest or weed control at 125 g/ha: 125 g ai/ha; for pest or weed control at 500 g/ha: 500 g ai/ha
Outline: as §1

[3] = tested on: cocklebur (Xanthium strumarium); experiment: Test B pre/postemergence; conditions: Xanthium strumarium; for pest or weed control at 125 g/ha: 125 g ai/ha; for pest or weed control at 500 g/ha: 500 g ai/ha
Outline: as §1

corn (Zea mays) = experiment: Test B pre/postemergence; conditions: Zea mays
Outline: as §1

[4] = tested on: crabgrass (Digitaria sanguinalis); experiment: Test B pre/postemergence; conditions: Digitaria sanguinalis; for pest or weed control at 125 g/ha: 125 g ai/ha; for pest or weed control at 500 g/ha: 500 g ai/ha
Outline: as §1

[5] = tested on: giant foxtail (Setaria faberii); experiment: Test B pre/postemergence; conditions: Setaria faberi; for pest or weed control at 125 g/ha: 125 g ai/ha; for pest or weed control at 500 g/ha: 500 g ai/ha
Outline: as §1

[6] = tested on: lambsquarters (Chenopodium album); experiment: Test B pre/postemergence; conditions: Chenopodium album; for pest or weed control at 125 g/ha: 125 g ai/ha; for pest or weed control at 500 g/ha: 500 g ai/ha
Outline: as §1

[7] = tested on: morningglory (Ipomoea coccinea); experiment: Test B pre/postemergence; conditions: Ipomoea; for pest or weed control at 125 g/ha: 125 g ai/ha; for pest or weed control at 500 g/ha: 500 g ai/ha
Outline: as §1

[8] = tested on: pigweed (Amaranthus retroflexus); experiment: Test B pre/postemergence; conditions: Amaranthus retroflexus; for pest or weed control at 125 g/ha: 125 g ai/ha; for pest or weed control at 500 g/ha: 500 g ai/ha
Outline: as §1

[9] = tested on: velvetleaf (Abutilon theophrasti); experiment: Test B pre/postemergence; conditions: Abutilon theophrasti; for pest or weed control at 125 g/ha: 125 g ai/ha; for pest or weed control at 500 g/ha: 500 g ai/ha
Outline: as §1

[10] = tested on: wheat (Triticum aestivum); experiment: Test B pre/postemergence; conditions: Triticum aestivum; for plant injury at 125 g/ha: 125 g ai/ha; for plant injury at 500 g/ha: 500 g ai/ha
Outline: as §1

[11] = tested on: blackgrass (Alopecurus myosuroides); experiment: Test B postemergence; conditions: Alopecurus myosuroides, post-emergence
Outline: as §1

wild oat (Avena fatua) = experiment: Test B postemergence; conditions: Avena fatua, post-emergence
Outline: as §1

[12] = tested on: barnyardgrass (Echinochloa crus-galli); experiment: Test B flooded paddy test; conditions: Echinochloa crus-galli, Flood, 1000 g ai/ha; scale 0 (no effect) to 100 (complete control); read-out: Plant response rating, Barnyardgrass
Outline: (§2)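 Visual injury scoring (0 = no effect, 100 = complete control) versus controls made 13 to 15 days after treatment in the greenhouse. Test species were grown in flooded paddy to the 2-leaf stage: rice, barnyardgrass, umbrella sedge, duck salad.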

[13] = tested on: duck salad (Heteranthera limosa); experiment: Test B flooded paddy test; conditions: Heteranthera limosa, Flood, 1000 g ai/ha; scale 0 to 100; read-out: Plant response rating, Ducksalad
Outline: as §2

rice (Oryza sativa) = experiment: Test B flooded paddy test; conditions: Oryza sativa, Flood, 1000 g ai/ha; scale 0 to 100; read-out: Plant response rating, Rice
Outline: as §2

[14] = tested on: umbrella sedge (Cyperus difformis); experiment: Test B flooded paddy test; conditions: Cyperus difformis, Flood, 1000 g ai/ha; scale 0 to 100; read-out: Plant response rating, Sedge, Umbrella
Outline: as §2

[15] = pre-emergence, Preemergence, scale 0 to 100 (0 no effect, 100 complete control), read-out: Plant response rating, Wheat

COC(=O)c1nc(C2CC2)nc(NO)c1Br [Compound 35]
pest or weed control at 125 g/ha ([1]; post-emergence, Postemergence, scale 0 to 100 (0 no effect, 100 complete control), read-out: Surinam Grass plant response rating): 20% | pest or weed control at 500 g/ha ([1]; post-emergence, Postemergence, scale 0 to 100, read-out: Plant response rating, Surinam Grass): 80% | pest or weed control at 125 g/ha ([1]; pre-emergence, Preemergence, scale 0 to 100 (0 no effect, 100 complete control), read-out: Plant response rating, Surinam Grass): 10% | pest or weed control at 500 g/ha ([1]; pre-emergence, Preemergence, scale 0 to 100 (0 no effect, 100 complete control), read-out: Surinam Grass plant response rating): 60% | pest or weed control at 125 g/ha ([2]; post-emergence, Postemergence, scale 0 to 100 (0 no effect, 100 complete control), read-out: Barnyardgrass plant response rating): 40% | pest or weed control at 500 g/ha ([2]; post-emergence, Postemergence, scale 0 to 100, read-out: Plant response rating, Barnyardgrass): 90% | pest or weed control at 125 g/ha ([2]; pre-emergence, Preemergence, scale 0 to 100 (0 no effect, 100 complete control), read-out: Plant response rating, Barnyardgrass): 10% | pest or weed control at 500 g/ha ([2]; pre-emergence, Preemergence, scale 0 to 100 (0 no effect, 100 complete control), read-out: Barnyardgrass plant response rating): 80% | pest or weed control at 125 g/ha ([3]; post-emergence, Postemergence, scale 0 to 100 (0 no effect, 100 complete control), read-out: Cocklebur plant response rating): 30% | pest or weed control at 500 g/ha ([3]; post-emergence, Postemergence, scale 0 to 100, read-out: Plant response rating, Cocklebur): 100% | pest or weed control at 125 g/ha ([3]; pre-emergence, Preemergence, scale 0 to 100 (0 no effect, 100 complete control), read-out: Plant response rating, Cocklebur): 60% | pest or weed control at 500 g/ha ([3]; pre-emergence, Preemergence, scale 0 to 100 (0 no effect, 100 complete control), read-out: Cocklebur plant response rating): 90% | plant injury at 125 g/ha (corn (Zea mays); post-emergence, Postemergence, 125 g ai/ha, scale 0 to 100 (0 no effect, 100 complete control), read-out: Corn plant response rating): 0% | Corn plant response rating (crop injury, 0 = no effect, 100 = complete kill) at 500 g/ha (corn (Zea mays); post-emergence, Postemergence, 500 g ai/ha, scale 0 to 100): 60% | Corn plant response rating (crop injury, 0 = no effect, 100 = complete kill) at 125 g/ha (corn (Zea mays); pre-emergence, Preemergence, 125 g ai/ha, scale 0 to 100 (0 no effect, 100 complete control)): 0% | plant injury at 500 g/ha (corn (Zea mays); pre-emergence, Preemergence, 500 g ai/ha, scale 0 to 100 (0 no effect, 100 complete control), read-out: Corn plant response rating): 50% | pest or weed control at 125 g/ha ([4]; post-emergence, Postemergence, scale 0 to 100 (0 no effect, 100 complete control), read-out: Crabgrass plant response rating): 20% | pest or weed control at 500 g/ha ([4]; post-emergence, Postemergence, scale 0 to 100, read-out: Plant response rating, Crabgrass): 50% | pest or weed control at 125 g/ha ([4]; pre-emergence, Preemergence, scale 0 to 100 (0 no effect, 100 complete control), read-out: Plant response rating, Crabgrass): 30% | pest or weed control at 500 g/ha ([4]; pre-emergence, Preemergence, scale 0 to 100 (0 no effect, 100 complete control), read-out: Crabgrass plant response rating): 80% | pest or weed control at 125 g/ha ([5]; post-emergence, Postemergence, scale 0 to 100 (0 no effect, 100 complete control), read-out: Foxtail, Giant plant response rating): 10% | pest or weed control at 500 g/ha ([5]; post-emergence, Postemergence, scale 0 to 100, read-out: Plant response rating, Foxtail, Giant): 60% | pest or weed control at 125 g/ha ([5]; pre-emergence, Preemergence, scale 0 to 100 (0 no effect, 100 complete control), read-out: Plant response rating, Foxtail, Giant): 0% | pest or weed control at 500 g/ha ([5]; pre-emergence, Preemergence, scale 0 to 100 (0 no effect, 100 complete control), read-out: Foxtail, Giant plant response rating): 70% | pest or weed control at 125 g/ha ([6]; post-emergence, Postemergence, scale 0 to 100 (0 no effect, 100 complete control), read-out: Lambsquarters plant response rating): 90% | pest or weed control at 500 g/ha ([6]; post-emergence, Postemergence, scale 0 to 100, read-out: Plant response rating, Lambsquarters): 100% | pest or weed control at 125 g/ha ([6]; pre-emergence, Preemergence, scale 0 to 100 (0 no effect, 100 complete control), read-out: Plant response rating, Lambsquarters): 90% | pest or weed control at 500 g/ha ([6]; pre-emergence, Preemergence, scale 0 to 100 (0 no effect, 100 complete control), read-out: Lambsquarters plant response rating): 100% | pest or weed control at 125 g/ha ([7]; post-emergence, Postemergence, scale 0 to 100 (0 no effect, 100 complete control), read-out: Morningglory plant response rating): 70% | pest or weed control at 500 g/ha ([7]; post-emergence, Postemergence, scale 0 to 100, read-out: Plant response rating, Morningglory): 100% | pest or weed control at 125 g/ha ([7]; pre-emergence, Preemergence, scale 0 to 100 (0 no effect, 100 complete control), read-out: Plant response rating, Morningglory): 70% | pest or weed control at 500 g/ha ([7]; pre-emergence, Preemergence, scale 0 to 100 (0 no effect, 100 complete control), read-out: Morningglory plant response rating): 100% | pest or weed control at 125 g/ha ([8]; post-emergence, Postemergence, scale 0 to 100 (0 no effect, 100 complete control), read-out: Pigweed plant response rating): 70% | pest or weed control at 500 g/ha ([8]; post-emergence, Postemergence, scale 0 to 100, read-out: Plant response rating, Pigweed): 100% | pest or weed control at 125 g/ha ([8]; pre-emergence, Preemergence, scale 0 to 100 (0 no effect, 100 complete control), read-out: Plant response rating, Pigweed): 80% | pest or weed control at 500 g/ha ([8]; pre-emergence, Preemergence, scale 0 to 100 (0 no effect, 100 complete control), read-out: Pigweed plant response rating): 100% | pest or weed control at 125 g/ha ([9]; post-emergence, Postemergence, scale 0 to 100 (0 no effect, 100 complete control), read-out: Velvetleaf plant response rating): 50% | pest or weed control at 500 g/ha ([9]; post-emergence, Postemergence, scale 0 to 100, read-out: Plant response rating, Velvetleaf): 90% | pest or weed control at 125 g/ha ([9]; pre-emergence, Preemergence, scale 0 to 100 (0 no effect, 100 complete control), read-out: Plant response rating, Velvetleaf): 70% | pest or weed control at 500 g/ha ([9]; pre-emergence, Preemergence, scale 0 to 100 (0 no effect, 100 complete control), read-out: Velvetleaf plant response rating): 90% | plant injury at 125 g/ha ([10]; post-emergence, Postemergence, scale 0 to 100 (0 no effect, 100 complete control), read-out: Wheat plant response rating): 20% | plant injury at 500 g/ha ([10]; post-emergence, Postemergence, scale 0 to 100, read-out: Plant response rating, Wheat): 60% | plant injury at 125 g/ha [10, 15]: 20% | plant injury at 500 g/ha [10, 15]: 50% | pest or weed control at 125 g/ha ([11]; 125 g ai/ha, scale 0 to 100 (0 no effect, 100 complete control), read-out: Blackgrass plant response rating): 60% | pest or weed control at 500 g/ha ([11]; 500 g ai/ha, scale 0 to 100, read-out: Plant response rating, Blackgrass): 70% | pest or weed control at 125 g/ha (wild oat (Avena fatua); 125 g ai/ha, scale 0 to 100 (0 no effect, 100 complete control), read-out: Oat, Wild plant response rating): 60% | pest or weed control at 500 g/ha (wild oat (Avena fatua); 500 g ai/ha, scale 0 to 100, read-out: Plant response rating, Oat, Wild): 60% | pest or weed control at 1000 g/ha [12]: 0% | pest or weed control at 1000 g/ha [13]: 0% | plant injury at 1000 g/ha (rice (Oryza sativa)): 0% | pest or weed control at 1000 g/ha [14]: 0%
